This note sets out measurements from article PMC4783701 (Scientific Reports, 2016).

Molecules are shown by their SMILES. ≈ marks a conversion by molar mass, not a printed value. Where “and” joins values, the source holds several entries; their conditions need not be identical. Equal entries are not always repeated.

For data set [1], the target named is PAN endonuclease (N-terminal domain of the PA subunit) (Influenza A virus, UniProt P03433). The data set is classed as biochemical.
Data set [2] deals with influenza H1N1 virus. Description: microbe, parasite or virus in culture. The data set is classed as cell-based, influenza A virus. The settings on record: for IC50: Influenza A virus, H1N1, MDCK.
A further data set in a line: MTT cytotoxicity assay. To be noted: dog, MDCK cells. The data set is classed as cell-based, canine. The protocol:
Selectivity index (SI) of each compound was defined as the ratio of CC50 over IC50. CC50 value was determined with MTT assay according to the manufacturer’s protocol (Invitrogen), while IC50 data was obtained by plaque reduction assay. Both assays were done in MDCK cells and values were calculated using Sigma plot 12.0 (SPSS).
Background: Tetrazolium assays rely on reduction of a dye to a coloured formazan, in cell work by metabolically active cells.

The subject of data set [3] is influenza H1N1 virus. The data set is classed as cell-based, influenza A virus.
In data set [4] the test system is multiple subtypes of influenza virus, including H1N1, H3N2, H5N1, H7N7, H7N9, and H9N2. The data set is classed as cell-based, influenza A virus. To be noted: all tested subtypes; for inhibition of viral replication: serial-diluted compound.
A further data set deals with PAN protein (Influenza A virus, UniProt P03433). Description: biochemical. The data set is classed as binding.
Data set [5] relates to influenza H1N1 virus. The data set is classed as cell-based, influenza A virus. This is another data set of the same source.
For a further data set, the system named is H1N1 virus. The experiment in a line: microbe, parasite or virus in culture. The data set is classed as cell-based. The settings on record: Influenza A virus, H1N1, MDCK, 24 h.
The subject of a further data set is H3N2 virus. The data set is classed as cell-based, influenza A virus. To be noted: MDCK, MOI 0.002, 24 h post-infection.
The next data set has as its system H5N1 virus. Description: microbe, parasite or virus in culture. The data set is classed as cell-based. The settings on record: Influenza A virus, H5N1, MDCK, 24 h.
A further data set has as its system H7N7 virus. The experiment in a line: microbe, parasite or virus in culture. The data set is classed as cell-based. To be noted: Influenza A virus, H7N7, MDCK, 24 h.
For a further data set, the system named is H7N9 virus. The data set is classed as cell-based, influenza A virus. The settings on record: MDCK, MOI 0.002, 24 h post-infection.
Another data set deals with H9N2 virus. Description: microbe, parasite or virus in culture. To be noted: Influenza A virus, H9N2, MDCK, 24 h. The data set is classed as cell-based.
For data set [6], the target named is influenza polymerase activity (PB1, PB2, PA, NP) (Influenza A virus, UniProt P03433). The data set is classed as cell-based.
A further data set can be described thus: Solubility in PBS. The data set is classed as physicochemical. To be noted: read-out: solubility limitation.

`O=C1C(=O)c2ccccc2C(Cl)=C1Cl` [Compound 6304348]: the “PAN Endonuclease Inhibition Postive” value in [1] is reported as “Y”.
`C=CCN1C(=O)C(=Cc2cccn2-c2cccc([N+](=O)[O-])c2)C(=O)NC1=S` [Compound 5987504]: the “PAN Endonuclease Inhibition Postive” value in [1] is given as “Y”. In the data set on influenza H1N1 virus [2], the “Anti-H1N1 Positive” value is given as “Y”.
For `O=C1C=CC(=O)C(C(=CNCc2ccccc2)[N+](=O)[O-])=C1` [Compound 5261378], the “PAN Endonuclease Inhibition Postive” value in data set [1] is listed as “Y”.
The IC50 is the concentration that inhibits the measured activity by half. Broadly, the CC50 is the concentration at which the toxic effect on the cells reaches its halfway point. Lower therefore signals harm at low concentration. For orientation: Kd means a measure of binding affinity in units of concentration. Read a low Kd as higher affinity. For `CN(C)c1ccc(/C=C2\S/C(=N\N=C3\C(=O)Nc4ccccc43)NC2=O)cc1` [PA-30], the “IC50 compared with that of DPBA” value in data set [1] is listed as “lower IC50s”. In the data set on influenza H1N1 virus [2], the “Selectivity Index (CC50/IC50)” value is reported as over 200, the plaque number reduction result is recorded as “reduce the plaque number in a dose-dependent manner” and the IC50 was found to be 1500 ± 200 nM. Further, in “MTT cytotoxicity assay”, the CC50 is over 300000 nM. The “reduction in supernatant viral titer” value in the data set with influenza H1N1 virus [3] is recorded as 2–3 log. In data set [4], the “inhibition of viral replication” value is “inhibited viral replication of all tested subtypes of influenza virus in a dose-dependent manner”. Besides, on PAN protein, binding was put at a Kd of 1300 nM.
For `O=C1C=CC(=NS(=O)(=O)c2ccc(Cl)cc2)C=C1Cl` [Compound 5158517], the “PAN Endonuclease Inhibition Postive” value in data set [1] is recorded as “Y”.
For `O=C([O-])Cc1c[nH]c2ccc(O)cc12.[K+]` [Compound 5106705], in [1], the “PAN Endonuclease Inhibition Postive” value is “Y”.
As to `CC(=O)N[C@H]1[C@H]([C@H](O)[C@H](O)CO)OC(C(=O)O)=C[C@@H]1N=C(N)N` [zanamivir, reference compound], in the data set with influenza H1N1 virus [5], the “intracellular and supernatant vRNA when added at 1 h p.i. and maintained” value is “reduced the vRNA in the supernatant but not inside the cells”.
In general, solubility refers to how much of the substance goes into solution per volume. For the compound `O=C1N=c2ccccc2=C1NNC1=NC(=O)/C(=C2/C(=O)Nc3ccccc32)S1` [ANA-0, (5Z)-2-[2-(2-oxoindol-3-yl)hydrazinyl]-5-(2-oxo-1H-indol-3-ylidene)-1,3-thiazol-4-one], in data set [1], the “IC50 compared with that of DPBA” value is listed as “lower IC50s”. The “Selectivity Index (CC50/IC50)” value in the data set on influenza H1N1 virus [2] was over 500. The IC50 is 800 ± 100 nM in the data set on influenza H1N1 virus [2]; under 1000 nM in the data set on H1N1 virus; about 2500 nM with H5N1 virus; about 2500 nM with H7N7 virus; under 1000 nM in the data set on H9N2 virus. In “MTT cytotoxicity assay”, this compound returned a cytotoxic concentration (CC50) of over 400000 nM. Besides, the “reduction in supernatant viral titer” value with influenza H1N1 virus [3] was 2–3 log. Also, the “concentration required for similar inhibition relative to H1N1 and H9N2” value in the data set with H3N2 virus is 5 fold and > 5 fold; with H7N9 virus, 5 fold and > 5 fold. The “suppression of virus replication” value in data set [4] (20 μM) was “more than 3 logs”. In addition, the “inhibition of viral replication” value in data set [4] is given as “inhibited viral replication of all tested subtypes of influenza virus in a dose-dependent manner”. Also, in the data set with influenza H1N1 virus [5], the “antiviral efficacy when added during virus absorption (-1 h) and then removed” value is on record as “did not exert antiviral efficacy”. In addition, in the data set on influenza H1N1 virus [5], the “intracellular and supernatant vRNA when added at 1 h p.i. and maintained” value is given as “significant decrease of viral RNAs”. Moreover, the “intracellular viral mRNA production” value in the data set with influenza H1N1 virus [5] is listed as “reduced the viral mRNA production”. The “vRNAs in cell lysates” value in the data set with influenza H1N1 virus [5] is recorded as “subsequent decrease of vRNAs in cell lysates”. In data set [6], the “luciferase activity (viral polymerase function)” value is given as “dose-dependent suppression of luciferase activity”. At PAN protein, this compound returned a Kd of 1100 nM. For the same compound, the solubility in the data set “Solubility in PBS” is 1000 µg/mL (≈ 2570 µM).
With `Oc1c(Br)cc(/C=N/Nc2nc3ccccc3s2)c(O)c1Br` [PA-35], in the data set with influenza H1N1 virus [2], the “Selectivity Index (CC50/IC50)” value was found to be 58, the plaque number reduction entry is reported as “reduce the plaque number in a dose-dependent manner” and the half-inhibitory concentration (IC50) was found to be 1300 ± 500 nM. The compound further had a CC50 in the data set “MTT cytotoxicity assay” of 75000 ± 23000 nM.
Take `Nc1c(C(=O)O)cc(O)c2c1C(=O)c1ccccc1C2=O` [Compound 5302115]: in data set [1], the “PAN Endonuclease Inhibition Postive” value is recorded as “Y”. Also, the “Anti-H1N1 Positive” value in the data set with influenza H1N1 virus [2] is listed as “Y”.
As to `C=CCN1C(=O)/C(=C\c2cccn2-c2ccc([N+](=O)[O-])cc2)C(=O)NC1=S` [PA-48], in the data set on influenza H1N1 virus [2], the “Selectivity Index (CC50/IC50)” value was determined as 10, the plaque number reduction result is “reduce the plaque number in a dose-dependent manner” and the IC50 is 2000 ± 100 nM. In “MTT cytotoxicity assay”, this compound came in with a cytotoxic concentration (CC50) of 20000 ± 5000 nM.
Turning to `CN(C)c1ccc(C=C2SC(=NN=C3C(=O)Nc4ccccc43)NC2=O)cc1` [Compound 5404571], the “PAN Endonuclease Inhibition Postive” value in data set [1] is reported as “Y”. In addition, in the data set on influenza H1N1 virus [2], the “Anti-H1N1 Positive” value is reported as “Y”.
Consider `Nc1c(C(=O)O)cc(O)c2c1C(=O)c1ccccc1C2=O` [PA-24], for which, in the data set with influenza H1N1 virus [2], the “Selectivity Index (CC50/IC50)” value is 129, the plaque number reduction result is recorded as “reduce the plaque number in a dose-dependent manner” and the IC50 came to 1400 ± 300 nM. The compound further yielded a cytotoxic concentration (CC50) in “MTT cytotoxicity assay” of 180000 ± 15000 nM.
As to `Oc1c(Br)cc(C=NNc2nc3ccccc3s2)c(O)c1Br` [Compound 5482349], in [1], the “PAN Endonuclease Inhibition Postive” value is listed as “Y”. In addition, the “Anti-H1N1 Positive” value in the data set on influenza H1N1 virus [2] was “Y”.
